Assay results: patent US20240327393A1 (SIRONAX LTD., priority 2021, published 2024)
Read-outs that look alike come from different tables or passages of the source.

Test system: HT-1080 (ATCC, CCL-121) cells
Assay: HT-1080 cell viability assay with ferroptosis inducer RSL3 (Cell Titer-Glo)
Format: cell-based
Conditions: HT-1080 cells treated with RSL3, 3-fold, 10-point dilution, 1.1 μM highest concentration, Table 3, read-out: EC50 (nM), ferroptosis inhibitory activity
Outline: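 EC50 was derived by sigmoidal dose-response regression of CellTiter-Glo luminescence viability, expressed relative to untreated wells. Compounds were tested in a ten-point, threefold dilution series (highest 1.1 μM) in the presence of the ferroptosis inducer RSL3. HT-1080 cells had been seeded at 6000 per well and grown overnight first.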

SMILES | EC50 (Homo sapiens) | EC50
C[C@@H]1C[C@H](c2ccc(Nc3ccc4c(c3)OCC(=O)N4)cc2)CCO1 [Compound 484, 7-((4-((2R,4R)-2-methyltetrahydro-2H-pyran-4-yl)phenyl)amino)-2H-benzo[b][1,4]oxazin-3(4H)-one] | 0.1 to 100 nM | 
COc1cc(Nc2ccc3c(c2)OCC(=O)N3)ccc1N1CCC(C(F)(F)F)CC1 [Compound 485, 7-((3-methoxy-4-(4-(trifluoromethyl)piperidin-1-yl)phenyl)amino)-2H-benzo[b][1,4]oxazin-3(4H)-one] | 0.1 to 100 nM | 
O=C1COc2cc(Nc3ccc(N4CCC(C(F)(F)F)CC4)c(F)c3)ccc2N1 [Compound 486, 7-((3-fluoro-4-(4-(trifluoromethyl)piperidin-1-yl)phenyl)amino)-2H-benzo[b][1,4]oxazin-3(4H)-one] | 0.1 to 100 nM | 
Cc1c(Nc2ccc3c(c2)OCC(=O)N3)ccc(N2CCC(C(F)(F)F)CC2)c1C [Compound 487, 7-((2,3-dimethyl-4-(4-(trifluoromethyl)piperidin-1-yl)phenyl)amino)-2H-benzo[b][1,4]oxazin-3(4H)-one] | 0.1 to 100 nM | 
Cc1cc(N2CCC(C(F)(F)F)CC2)c(F)cc1Nc1ccc2c(c1)OCC(=O)N2 [Compound 488, 7-((5-fluoro-2-methyl-4-(4-(trifluoromethyl)piperidin-1-yl)phenyl)amino)-2H-benzo[b][1,4]oxazin-3(4H)-one] | 0.1 to 100 nM | 
Cc1nc(N2CCC(C(F)(F)F)CC2)ccc1Nc1ccc2c(c1)OCC(=O)N2 [Compound 489, 7-((2-methyl-6-(4-(trifluoromethyl)piperidin-1-yl)pyridin-3-yl)amino)-2H-benzo[b][1,4]oxazin-3(4H)-one] | 0.1 to 100 nM | 
Cc1cc(N2CCC(C)CC2)ccc1Nc1ccc2c(c1)OCC(=O)N2C [Compound 490, 4-methyl-7-((2-methyl-4-(4-methylpiperidin-1-yl)phenyl)amino)-2H-benzo[b][1,4]oxazin-3(4H)-one] | 0.1 to 100 nM | 
Cc1cc(N2CCC(C)CC2)ccc1Nc1ccc2c(c1)OCC(=O)N2 [Compound 491, 7-((2-methyl-4-(4-methylpiperidin-1-yl)phenyl)amino)-2H-benzo[b][1,4]oxazin-3(4H)-one] | 0.1 to 100 nM | 
Cc1c(Nc2ccc3c(c2)OCC(=O)N3C)ccc(N2CCC(C(F)(F)F)CC2)c1C#N [Compound 492, 2-methyl-3-((4-methyl-3-oxo-3,4-dihydro-2H-benzo[b][1,4]oxazin-7-yl)amino)-6-(4-(trifluoromethyl)piperidin-1-yl)benzonitrile] | 0.1 to 100 nM | 
Cc1cc(N2C[C@@H](C)O[C@@H](C)C2)ccc1Nc1ccc2[nH]cnc2c1 [Compound 493, N-(4-((2R,6S)-2,6-dimethylmorpholino)-2-methylphenyl)-1H-benzo[d] imidazol-5-amine] | 0.1 to 100 nM | 
Cc1cc(N2C[C@@H](C)O[C@@H](C)C2)ccc1Nc1ccc2c(c1)CNC(=O)N2 [Compound 494, 6-((4-((2R,6S)-2,6-dimethylmorpholino)-2-methylphenyl)amino)-3,4-dihydroquinazolin-2(1H)-one] | 0.1 to 100 nM | 
CN1C(=O)COc2cc(Nc3ccc(N4CCC(C(F)(F)F)CC4)cc3)c(O)cc21 [Compound 495, 6-hydroxy-4-methyl-7-({4-[4-(trifluoromethyl)piperidin-1-yl]phenyl}amino)-2H-1,4-benzoxazin-3-one] | 0.1 to 100 nM | 
Cc1cc(N2CCC(C(F)(F)F)CC2)ccc1Nc1ccc2[nH]c(=O)oc2c1 [Compound 496, 6-((2-methyl-4-(4-(trifluoromethyl)piperidin-1-yl)phenyl)amino) benzo[d]oxazol-2(3H)-one] | 0.1 to 100 nM | 
Cc1cc(N2CCC(C(F)(F)F)CC2)ccc1Nc1ccc2[nH]ncc2c1 [Compound 497, N-(2-methyl-4-(4-(trifluoromethyl)piperidin-1-yl)phenyl)-1H-indazol-5-amine] | 0.1 to 100 nM | 
CCC1CN(c2ccc(Nc3ccc4c(c3)OCC(=O)N4)c(C)n2)CCO1 (centres unmarked) [Compound 498, 7-((6-(2-ethylmorpholino)-2-methylpyridin-3-yl)amino)-2H-benzo[b][1,4]oxazin-3(4H)-one] | 0.1 to 100 nM | 
CC[C@@H]1CN(c2ccc(Nc3ccc4c(c3)OCC(=O)N4)c(C)n2)C[C@H](CC)O1 [Compound 499, 7-((6-((2S,6R)-2,6-diethylmorpholino)-2-methylpyridin-3-yl)amino)-2H-benzo[b][1,4]oxazin-3(4H)-one] | 0.1 to 100 nM | 
Cc1nc(N2CCOC(C)(C)C2)ccc1Nc1ccc2c(c1)OCC(=O)N2 [Compound 500, 7-((6-(2,2-dimethylmorpholino)-2-methylpyridin-3-yl)amino)-2H-benzo[b][1,4]oxazin-3(4H)-one] | 0.1 to 100 nM | 
CCN(CC)c1ccc(Nc2ccc3c(c2)OCC(=O)N3)c(C)c1 [Compound 501, 7-((4-(diethylamino)-2-methylphenyl)amino)-2H-benzo[b][1,4]oxazin-3(4H)-one] | 0.1 to 100 nM | 
Cc1cc(N2CCC(C(F)(F)F)C2)ccc1Nc1ccc2c(c1)OCC(=O)N2 (centres unmarked) [Compound 502, 7-((2-methyl-4-(3-(trifluoromethyl)pyrrolidin-1-yl)phenyl)amino)-2H-benzo[b][1,4]oxazin-3(4H)-one] |  | 0.1 to 100 nM
COC1(C(F)(F)F)CCN(c2ccc(Nc3ccc4c(c3)OCC(=O)N4)c(C)n2)CC1 [Compound 503, 7-((6-(4-methoxy-4-(trifluoromethyl)piperidin-1-yl)-2-methylpyridin-3-yl)amino)-2H-benzo[b][1,4]oxazin-3(4H)-one] | 0.1 to 100 nM | 
Cc1nc(N2CC(C)(C)OC(C)(C)C2)ccc1Nc1ccc2c(c1)OCC(=O)N2 [Compound 504] | 0.1 to 100 nM | 
COCCOC1CCN(c2ccc(Nc3ccc4c(c3)OCC(=O)N4)c(C)c2)CC1 [Compound 505] | 0.1 to 100 nM | 
Cc1cc(N2CCCCC2)ccc1Nc1ccc2c(c1)OCC(=O)N2C [Compound 506] | 0.1 to 100 nM | 

The remaining lines, values ahead:

EC50 (Homo sapiens) | EC50 | SMILES
0.1 to 100 nM |  | Cc1cc(N2CCC(C(F)(F)F)CC2)ccc1Nc1cc(C#N)c2c(c1)OCC(=O)N2 [Compound 468, 7-((2-methyl-4-(4-(trifluoromethyl)piperidin-1-yl)phenyl)amino)-3-oxo-3,4-dihydro-2H-benzo[b][1,4]oxazine-5-carbonitrile]
0.1 to 100 nM |  | CN1C(=O)COc2cc(Nc3ccc(N4CCC(C(F)(F)F)CC4)cc3)c(N)cc21 [Compound 469, 6-amino-4-methyl-7-((4-(4-(trifluoromethyl)piperidin-1-yl)phenyl)amino)-2H-benzo[b][1,4]oxazin-3(4H)-one]
0.1 to 100 nM |  | Cc1cc(N2CCCCC2)ccc1Nc1ccc2c(c1)OCC(=O)N2 [Compound 470, 7-((2-methyl-4-(piperidin-1-yl)phenyl)amino)-2H-benzo[b][1,4]oxazin-3(4H)-one]
0.1 to 100 nM |  | CC[C@@H]1CN(c2ccc(Nc3ccc4c(c3)OCC(=O)N4)c(C)n2)C[C@@H](C)O1 [Compound 471, 7-((6-((2R,6R)-2-ethyl-6-methylmorpholino)-2-methylpyridin-3-yl)amino)-2H-benzo[b][1,4]oxazin-3(4H)-one]
0.1 to 100 nM |  | CCC1Oc2cc(Nc3ccc(C4CCOCC4)cc3)ccc2N(C)C1=O (centres unmarked) [Compound 472, 2-ethyl-4-methyl-7-((4-(tetrahydro-2H-pyran-4-yl)phenyl)amino)-2H-benzo[b][1,4]oxazin-3(4H)-one]
0.1 to 100 nM |  | Cc1cc(N2CCC(C(F)(F)F)CC2)ccc1Nc1cc(C)c2c(c1)OCC(=O)N2 [Compound 473, 5-methyl-7-((2-methyl-4-(4-(trifluoromethyl)piperidin-1-yl)phenyl)amino)-2H-benzo[b][1,4]oxazin-3(4H)-one]
0.1 to 100 nM |  | O=C1COc2cc(Nc3ccc(N4CCC(C(F)(F)F)CC4)nc3)ccc2N1 [Compound 474, 7-((6-(4-(trifluoromethyl)piperidin-1-yl)pyridin-3-yl)amino)-2H-benzo[b][1,4]oxazin-3(4H)-one]
0.1 to 100 nM |  | O=C1COc2cc(Nc3cnc(N4CCC(C(F)(F)F)CC4)nc3)ccc2N1 [Compound 475, 7-((2-(4-(trifluoromethyl)piperidin-1-yl)pyrimidin-5-yl)amino)-2H-benzo[b][1,4]oxazin-3(4H)-one]
0.1 to 100 nM |  | O=C1COc2cc(Nc3ccc(N4CCC(C(F)(F)F)CC4)cn3)ccc2N1 [Compound 476]
0.1 to 100 nM |  | Cc1cc(N2CCC(C(F)(F)F)CC2)ccc1Nc1cc2c(cc1C)N(C)C(=O)CO2 [Compound 477, 4,6-dimethyl-7-((2-methyl-4-(4-(trifluoromethyl)piperidin-1-yl)phenyl)amino)-2H-benzo[b][1,4]oxazin-3(4H)-one]
0.1 to 100 nM |  | CC1CC(c2ccc(Nc3ccc4c(c3)OCC(=O)N4)cc2)CCO1 (centres unmarked) [Compound 479, 7-((4-(2-methyltetrahydro-2H-pyran-4-yl)phenyl)amino)-2H-benzo[b][1,4]oxazin-3(4H)-one]
0.1 to 100 nM |  | Cc1cc(N2CCC(C(F)(F)F)CC2)ccc1Nc1cc(F)c2c(c1)OCC(=O)N2 [Compound 480, 5-fluoro-7-((2-methyl-4-(4-(trifluoromethyl)piperidin-1-yl)phenyl)amino)-2H-benzo[b][1,4]oxazin-3(4H)-one]
0.1 to 100 nM |  | Cc1cc(Nc2cc(F)c3c(c2)OCC(=O)N3)ccc1N1CCC(C(F)(F)F)CC1 [Compound 481, 5-fluoro-7-((3-methyl-4-(4-(trifluoromethyl)piperidin-1-yl)phenyl)amino)-2H-benzo[b][1,4]oxazin-3(4H)-one]
0.1 to 100 nM |  | Cc1cc(N2CCC(C(F)(F)F)CC2)ccc1Nc1ccc2c(c1)OC(C)C(=O)N2 (centres unmarked) [Compound 482, 2-methyl-7-((2-methyl-4-(4-(trifluoromethyl)piperidin-1-yl)phenyl)amino)-2H-benzo[b][1,4]oxazin-3(4H)-one]
0.1 to 100 nM |  | CCC1Oc2cc(Nc3ccc(N4CCC(C(F)(F)F)CC4)cc3C)ccc2NC1=O (centres unmarked) [Compound 483, 2-ethyl-7-((2-methyl-4-(4-(trifluoromethyl)piperidin-1-yl)phenyl)amino)-2H-benzo[b][1,4]oxazin-3(4H)-one]
